Test results published in ChEMBL document CHEMBL1201862, “PubChem BioAssay data set” (2004).
Calls of active or inactive are those of the source.

Key:
[1] = target: T1, Sphingosine 1-phosphate receptor 2 (Homo sapiens, UniProt O95136); assay: Dose Response Cell Based Assay for Agonists of the S1P2 Receptor of Purchased Analogues. [Related pubchem assays: 729, 843, 854, 736 ]; assay type: functional
[2] = target: T2, Tyrosine-protein phosphatase non-receptor type 7 (Homo sapiens, UniProt P35236); assay: HePTP tyrosine phosphatase activity blockers – biochemical, absorbance, leukemia target, primary screen (AID 521); assay type: functional
T2 sequence (P35236 whole entry): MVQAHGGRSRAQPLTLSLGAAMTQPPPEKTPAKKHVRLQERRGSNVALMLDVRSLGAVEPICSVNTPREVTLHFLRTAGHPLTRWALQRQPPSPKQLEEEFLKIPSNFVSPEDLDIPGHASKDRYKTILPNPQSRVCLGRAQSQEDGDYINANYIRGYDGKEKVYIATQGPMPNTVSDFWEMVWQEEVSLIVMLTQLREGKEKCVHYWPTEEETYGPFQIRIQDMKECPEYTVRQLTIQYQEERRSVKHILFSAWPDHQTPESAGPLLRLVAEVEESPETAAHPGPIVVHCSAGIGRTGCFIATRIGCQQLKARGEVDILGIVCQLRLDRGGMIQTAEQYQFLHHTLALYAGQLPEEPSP

Genome polyprotein = Genome polyprotein (Hepatitis C virus, UniProt Q2Q167); assay: disruption of hepatitis C core self-association – biochemical, TR-FRET, dose response (AID 2159); set-up: species or system Hepacivirus hominis;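 also: blocks dimerization of HCV core protein measured by TR-FRET between tagged core106 pairs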
Sequence of Genome polyprotein (Q2Q167 whole entry, the tested form may be a part): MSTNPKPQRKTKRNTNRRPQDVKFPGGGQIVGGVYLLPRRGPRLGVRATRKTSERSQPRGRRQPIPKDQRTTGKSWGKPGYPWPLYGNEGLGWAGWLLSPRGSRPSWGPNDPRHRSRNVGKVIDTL

[3] = target: T3, Carboxy-terminal domain RNA polymerase II polypeptide A small phosphatase 1 (Homo sapiens, UniProt Q9GZU7); assay: CTDSP1 inhibitors, concentration-response, biochemical, absorbance readout, ultra-high-throughput screen actives (AID 540297); assay type: functional
T3 sequence (Q9GZU7 whole entry): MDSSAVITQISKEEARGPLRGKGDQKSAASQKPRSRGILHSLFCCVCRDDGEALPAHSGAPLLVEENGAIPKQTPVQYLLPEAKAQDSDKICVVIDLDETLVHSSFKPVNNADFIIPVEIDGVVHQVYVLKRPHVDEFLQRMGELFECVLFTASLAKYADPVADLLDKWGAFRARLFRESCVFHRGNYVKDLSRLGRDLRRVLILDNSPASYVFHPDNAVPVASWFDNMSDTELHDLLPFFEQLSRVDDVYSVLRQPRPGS

[4] = viability loss in THP-1 monocytes – THP-1 cells, cytotoxicity control for Vif-APOBEC3G degradation inhibitor project, dose response (AID 1117359); assay type: functional; conditions: THP-1
Oxytocin receptor = Oxytocin receptor (Homo sapiens, UniProt P30559); assay: Fluorescence-based cell-based high throughput dose response assay for potentiators of Oxytocin Receptor (OXTR). [Related pubchem assays: 434985 (Confirmation screen (OXTR potentiators in triplicate)), 2481 (Summary (OXTR potentiators)), 2445 (Primary screen (OXTR potentiators in singlicate))]; assay type: functional
Sequence of Oxytocin receptor (P30559 whole entry): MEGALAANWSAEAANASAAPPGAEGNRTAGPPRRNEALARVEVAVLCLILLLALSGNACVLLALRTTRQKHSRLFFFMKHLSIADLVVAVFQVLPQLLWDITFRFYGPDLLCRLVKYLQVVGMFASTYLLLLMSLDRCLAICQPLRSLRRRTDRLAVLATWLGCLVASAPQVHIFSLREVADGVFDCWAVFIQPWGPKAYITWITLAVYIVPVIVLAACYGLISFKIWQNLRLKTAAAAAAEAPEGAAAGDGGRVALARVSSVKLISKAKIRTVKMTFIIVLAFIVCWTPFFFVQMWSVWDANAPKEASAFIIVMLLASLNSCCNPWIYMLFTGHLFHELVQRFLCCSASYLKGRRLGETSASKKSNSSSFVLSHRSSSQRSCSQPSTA

Bcl-2-like protein 1 = Bcl-2-like protein 1 (Homo sapiens, UniProt Q07817); assay: blockers of BCLXL peptide binding – biochemical, fluorescence polarization, 1536-well, selectivity assay for MCL1 inhibitor project, dose response (AID 2218)
Sequence of Bcl-2-like protein 1 (Q07817 whole entry): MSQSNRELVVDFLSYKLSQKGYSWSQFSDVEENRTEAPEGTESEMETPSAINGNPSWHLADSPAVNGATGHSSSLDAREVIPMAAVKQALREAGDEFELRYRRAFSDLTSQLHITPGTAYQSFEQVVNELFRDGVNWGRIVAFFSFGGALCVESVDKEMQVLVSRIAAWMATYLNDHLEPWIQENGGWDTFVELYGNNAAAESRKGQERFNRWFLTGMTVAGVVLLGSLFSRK

[5] = target: T4, Induced myeloid leukemia cell differentiation protein Mcl-1 (Homo sapiens, UniProt Q07820); assay type: functional
T4 sequence (Q07820 whole entry): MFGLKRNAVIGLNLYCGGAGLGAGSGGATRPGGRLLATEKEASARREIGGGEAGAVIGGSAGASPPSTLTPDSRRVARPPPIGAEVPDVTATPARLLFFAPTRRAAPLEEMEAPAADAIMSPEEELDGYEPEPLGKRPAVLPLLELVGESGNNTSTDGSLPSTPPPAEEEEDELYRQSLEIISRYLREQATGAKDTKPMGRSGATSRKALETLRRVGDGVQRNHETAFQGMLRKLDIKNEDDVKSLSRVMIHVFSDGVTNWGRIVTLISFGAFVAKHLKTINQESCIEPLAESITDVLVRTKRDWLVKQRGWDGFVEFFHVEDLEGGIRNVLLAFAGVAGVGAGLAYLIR

[6] = target: T4, Induced myeloid leukemia cell differentiation protein Mcl-1; assay: blockers of MCL1 binding to BIM peptide – biochemical, fluorescence polarization, BIM-BH3 peptide, 1536-well, dose response (AID 2217)
[7] = target: Solute carrier family 12 member 2/member 5 (Homo sapiens, UniProt P55011+Q9H2X9); assay: KCC2 and NKCC1 inhibition by rubidium flux, cell-based, NKCC1 counter-screen (AID 1734); assay type: functional, HEK293
Cytochrome P450 2C19 = Cytochrome P450 2C19 (Homo sapiens, UniProt P33261); assay: qHTS Assay for Inhibitors and Substrates of Cytochrome P450 2C19. [Related pubchem assays: 410 ]; assay type: ADME; conditions: read-out: Potency
Sequence of Cytochrome P450 2C19 (P33261 whole entry): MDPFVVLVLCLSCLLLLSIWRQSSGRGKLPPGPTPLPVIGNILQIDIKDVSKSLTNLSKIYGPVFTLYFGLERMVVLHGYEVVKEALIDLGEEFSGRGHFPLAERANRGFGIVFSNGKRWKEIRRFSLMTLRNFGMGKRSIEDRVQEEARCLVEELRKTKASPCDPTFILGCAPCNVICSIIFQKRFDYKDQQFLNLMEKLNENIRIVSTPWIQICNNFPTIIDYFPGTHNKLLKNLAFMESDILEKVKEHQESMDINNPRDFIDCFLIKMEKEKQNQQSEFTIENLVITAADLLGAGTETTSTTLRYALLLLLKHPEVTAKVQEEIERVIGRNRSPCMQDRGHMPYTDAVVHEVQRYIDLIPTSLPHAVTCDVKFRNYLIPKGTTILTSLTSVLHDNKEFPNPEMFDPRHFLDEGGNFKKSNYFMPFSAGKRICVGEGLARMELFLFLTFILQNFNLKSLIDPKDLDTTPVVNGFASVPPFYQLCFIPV

Cytochrome P450 2C9 = Cytochrome P450 2C9 (Homo sapiens, UniProt P11712); conditions: Potency
Sequence of Cytochrome P450 2C9 (P11712 whole entry): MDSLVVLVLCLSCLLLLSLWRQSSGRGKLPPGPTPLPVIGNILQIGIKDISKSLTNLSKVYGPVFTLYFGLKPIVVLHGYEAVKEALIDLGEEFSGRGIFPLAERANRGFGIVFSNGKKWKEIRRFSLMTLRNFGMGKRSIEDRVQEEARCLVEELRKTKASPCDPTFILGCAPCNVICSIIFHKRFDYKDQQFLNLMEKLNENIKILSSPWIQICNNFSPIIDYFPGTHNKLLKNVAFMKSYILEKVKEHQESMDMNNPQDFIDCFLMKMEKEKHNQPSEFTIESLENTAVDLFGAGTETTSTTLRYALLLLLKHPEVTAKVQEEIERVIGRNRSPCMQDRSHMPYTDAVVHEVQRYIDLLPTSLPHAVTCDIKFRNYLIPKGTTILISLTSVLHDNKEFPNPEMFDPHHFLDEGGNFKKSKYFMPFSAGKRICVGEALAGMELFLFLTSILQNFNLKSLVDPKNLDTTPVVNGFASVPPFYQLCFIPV

[8] = Trypanosoma cruzi growth suppression in host cells – NIH3T3 host cells, beta-gal luminescence, confirmation (AID 2044); assay type: functional, cell-based;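 also: intracellular parasites grown in NIH/3T3 mouse fibroblasts as host cells; luminescent beta-galactosidase reporter signal from transgenic T. cruzi replicating inside host cells; inhibitors lower the luminescence signal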
[9] = tested on: Streptococcus sp. 'group A'; assay: Streptococcus pyogenes SK(-)GAS viability under kanamycin – luminescence, BacTiterGlo, confirmation, counter-screen for streptokinase expression inhibitor project, dose response (AID 1900); assay type: functional, organism-based
Paired box protein Pax-8 = Paired box protein Pax-8 (Homo sapiens, UniProt Q06710); assay: PAX8 transcriptional activity inhibition in RMG-I – RMG-I cells, luciferase, cherry-pick, dose response (AID 687027); assay type: functional, cell-based;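 also: luciferase reporter driven by Pax8 target thyroperoxidase promoter measured by SteadyGlo luminescence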
Sequence of Paired box protein Pax-8 (Q06710 whole entry): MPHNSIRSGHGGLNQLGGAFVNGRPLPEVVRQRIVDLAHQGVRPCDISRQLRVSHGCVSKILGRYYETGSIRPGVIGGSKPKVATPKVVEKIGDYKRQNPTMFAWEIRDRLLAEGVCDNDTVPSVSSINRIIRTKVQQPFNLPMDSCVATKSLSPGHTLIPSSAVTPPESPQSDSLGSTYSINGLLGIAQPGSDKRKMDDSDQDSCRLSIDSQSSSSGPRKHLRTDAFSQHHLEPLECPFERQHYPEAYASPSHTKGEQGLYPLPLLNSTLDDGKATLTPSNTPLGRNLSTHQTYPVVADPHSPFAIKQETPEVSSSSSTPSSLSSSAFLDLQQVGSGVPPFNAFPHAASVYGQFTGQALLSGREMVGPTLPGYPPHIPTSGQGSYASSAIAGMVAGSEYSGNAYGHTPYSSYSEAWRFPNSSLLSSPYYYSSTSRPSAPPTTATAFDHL

[10] = target: T5, Sphingosine 1-phosphate receptor 1 (Homo sapiens, UniProt P21453); assay type: functional
T5 sequence (P21453 whole entry): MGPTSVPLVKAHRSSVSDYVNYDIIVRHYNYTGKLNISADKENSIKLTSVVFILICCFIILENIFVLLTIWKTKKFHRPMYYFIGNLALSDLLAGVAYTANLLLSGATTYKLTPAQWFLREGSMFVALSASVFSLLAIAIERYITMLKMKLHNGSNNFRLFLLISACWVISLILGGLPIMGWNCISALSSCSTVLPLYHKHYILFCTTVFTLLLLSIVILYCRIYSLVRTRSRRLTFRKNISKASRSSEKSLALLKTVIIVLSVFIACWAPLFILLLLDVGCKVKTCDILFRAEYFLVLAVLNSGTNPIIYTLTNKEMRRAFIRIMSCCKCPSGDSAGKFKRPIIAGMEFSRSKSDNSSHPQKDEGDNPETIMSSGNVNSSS

[11] = Luminescence Cell-Based Dose Response HTS to Identify Inhibitors of 5'UTR Stem-Loop Driven Prion Protein mRNA Translation in H4 Neuroglioblastoma Cells. [Related pubchem assays: 1827 (Project Summary), 1813 (Primary HTS)]; assay type: functional
[12] = target: T1, Sphingosine 1-phosphate receptor 2; assay: Late stage counterscreen assay for S1P4 antagonists: Fluorescence dose response cell-based screening assay for antagonists of the Sphingosine 1-Phosphate Receptor 2 (S1P2). [Related pubchem assays (depositor defined):AID1510, AID1524, AID1692, AID1853, AID2332, AID489009, AID489017]; assay type: functional
[13] = alpha-synuclein stem-loop luciferase translation blockers – H4 neuroglioma cells, luminescence, confirmation (AID 1988); assay type: functional, cell-based
[14] = target: T6, Sphingosine 1-phosphate receptor 4 (Homo sapiens, UniProt O95977); assay: Fluorescence dose response cell-based high throughput screening assay for antagonists of the Sphingosine 1-Phosphate Receptor 4 (S1P4). [Related pubchem assays: 1524 (Confirmation in triplicates.), 1510 (Primary screen.)]; assay type: functional
T6 sequence (O95977 whole entry): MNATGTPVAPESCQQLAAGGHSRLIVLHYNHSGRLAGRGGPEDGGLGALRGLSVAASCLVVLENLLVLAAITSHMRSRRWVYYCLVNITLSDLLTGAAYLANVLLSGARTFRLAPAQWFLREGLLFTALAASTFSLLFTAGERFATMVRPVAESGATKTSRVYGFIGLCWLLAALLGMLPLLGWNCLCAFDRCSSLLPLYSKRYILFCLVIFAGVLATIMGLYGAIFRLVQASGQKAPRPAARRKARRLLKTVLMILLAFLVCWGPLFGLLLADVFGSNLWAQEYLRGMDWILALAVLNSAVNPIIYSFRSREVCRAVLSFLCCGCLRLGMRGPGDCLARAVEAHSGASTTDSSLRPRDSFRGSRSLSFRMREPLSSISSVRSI

[15] = target: Sphingosine 1-phosphate receptor 3 (Homo sapiens, UniProt Q99500); assay: Late stage counterscreen assay for S1P4 antagonists: Fluorescence dose response cell-based screening assay for antagonists of the Sphingosine 1-Phosphate Receptor 3 (S1P3). [Related pubchem assays (depositor defined):AID1510, AID1524, AID1692, AID1853, AID2332, AID489009, AID489017]; assay type: functional
Sequence of Sphingosine 1-phosphate receptor 3 (Q99500 whole entry): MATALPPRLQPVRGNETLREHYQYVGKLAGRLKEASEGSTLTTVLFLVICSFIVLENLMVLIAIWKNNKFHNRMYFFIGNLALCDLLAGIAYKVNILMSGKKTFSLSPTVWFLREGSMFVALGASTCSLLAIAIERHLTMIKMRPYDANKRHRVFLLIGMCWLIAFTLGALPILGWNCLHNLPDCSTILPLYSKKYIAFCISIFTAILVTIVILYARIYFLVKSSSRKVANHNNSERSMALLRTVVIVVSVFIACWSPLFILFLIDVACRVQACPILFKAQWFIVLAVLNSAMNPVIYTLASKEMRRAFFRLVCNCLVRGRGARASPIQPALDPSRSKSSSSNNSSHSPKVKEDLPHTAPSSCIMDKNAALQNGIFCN

[16] = reduction of Shn3 3'UTR-driven luciferase in osteoblasts – cell-based, Clone20 osteoblasts, firefly luciferase, cherry-picked, dose response (AID 624132); assay type: functional;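 also: firefly luciferase luminescence from reporter carrying the Shn3 3'UTR in osteoblasts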
[17] = target: T5, Sphingosine 1-phosphate receptor 1; assay: Late stage counterscreen assay for S1P4 antagonists: Fluorescence dose response cell-based screening assay for antagonists of the Sphingosine 1-Phosphate Receptor 1 (S1P1). [Related pubchem assays (depositor defined):AID1510, AID1524, AID1692, AID1853, AID2332, AID489009, AID489017]; assay type: functional
[18] = luciferase reporter signal suppression in cells – H4 neuroglioma cells, luminescence, dose response (AID 1990); assay type: functional, cell-based
[19] = target: T6, Sphingosine 1-phosphate receptor 4; assay: Late stage fluorescence dose response cell-based screening assay for antagonists of the Sphingosine 1-Phosphate Receptor 4 (S1P4). [Related pubchem assays: 1524 (Confirmation screen (S1P4 antagonists).), 1510 (Primary screen (S1P4 antagonists).), 1853 (Summary AID (S1P4 antagonists).), 1692 (Dose response screen (S1P4 antagonists).)]; assay type: functional
Streptococcus = assay: GAS UMAA2166 growth inhibition – luminescence, BacTiterGlo, counter-screen for streptokinase expression inhibitor project, dose response (AID 1915); assay type: functional, organism-based;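 also: potency for reduction of bacterial viability or growth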
[20] = loss of viability in HepG2 cells – cell-based, CellTiter-Glo, cherry-picked, cytotoxicity control for Shn3 inhibitor project, dose response (AID 624134); assay type: functional
[21] = target: Sphingosine 1-phosphate receptor 5 (Homo sapiens, UniProt Q9H228); assay: Late stage counterscreen assay for S1P4 antagonists: Fluorescence dose response cell-based screening assay for antagonists of the Sphingosine 1-Phosphate Receptor 5 (S1P5). [Related pubchem assays (depositor defined):AID1510, AID1524, AID1692, AID1853, AID2332, AID489009, AID489017]; assay type: functional
Sequence of Sphingosine 1-phosphate receptor 5 (Q9H228 whole entry): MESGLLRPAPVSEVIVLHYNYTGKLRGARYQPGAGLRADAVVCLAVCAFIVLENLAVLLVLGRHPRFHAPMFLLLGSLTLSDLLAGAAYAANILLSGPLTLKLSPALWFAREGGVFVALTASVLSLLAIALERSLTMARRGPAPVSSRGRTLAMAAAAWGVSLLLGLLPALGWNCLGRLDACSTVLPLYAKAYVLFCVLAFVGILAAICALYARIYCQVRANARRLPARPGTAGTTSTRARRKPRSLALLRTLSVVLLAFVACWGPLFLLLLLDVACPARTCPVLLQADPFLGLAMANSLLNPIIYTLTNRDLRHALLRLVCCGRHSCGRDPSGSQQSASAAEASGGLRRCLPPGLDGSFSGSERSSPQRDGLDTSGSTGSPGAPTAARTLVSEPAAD

[22] = NIH3T3 cell viability loss – ATP luminescence, mouse fibroblasts, counter-screen, dose response (AID 2010); assay type: functional, cell-based;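 also: cells exposed to compound for about 90 hours before reading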
Streptokinase A = target: T7, Streptokinase A (Streptococcus pyogenes serotype M1, UniProt P10520); assay: viability-normalized secreted streptokinase activity reduction – plasminogen activation absorbance, OD405, dose response (AID 1914); assay type: functional, Streptococcus pyogenes M1 GAS;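 also: secreted streptokinase activity via plasminogen activation per viability signal from cell pellet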
T7 sequence (P10520 whole entry): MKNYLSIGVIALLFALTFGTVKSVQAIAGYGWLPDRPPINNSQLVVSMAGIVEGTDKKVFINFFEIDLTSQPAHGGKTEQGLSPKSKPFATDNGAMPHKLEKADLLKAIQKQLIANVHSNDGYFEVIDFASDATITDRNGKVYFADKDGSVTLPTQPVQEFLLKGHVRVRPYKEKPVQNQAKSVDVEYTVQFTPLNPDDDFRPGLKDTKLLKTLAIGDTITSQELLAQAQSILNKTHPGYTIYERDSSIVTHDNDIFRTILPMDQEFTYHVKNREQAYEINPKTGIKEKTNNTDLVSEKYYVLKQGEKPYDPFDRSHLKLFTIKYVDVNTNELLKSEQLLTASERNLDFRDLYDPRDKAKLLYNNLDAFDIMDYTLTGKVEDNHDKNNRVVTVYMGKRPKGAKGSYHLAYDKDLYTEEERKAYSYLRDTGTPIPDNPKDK

T1 sequence (O95136 whole entry): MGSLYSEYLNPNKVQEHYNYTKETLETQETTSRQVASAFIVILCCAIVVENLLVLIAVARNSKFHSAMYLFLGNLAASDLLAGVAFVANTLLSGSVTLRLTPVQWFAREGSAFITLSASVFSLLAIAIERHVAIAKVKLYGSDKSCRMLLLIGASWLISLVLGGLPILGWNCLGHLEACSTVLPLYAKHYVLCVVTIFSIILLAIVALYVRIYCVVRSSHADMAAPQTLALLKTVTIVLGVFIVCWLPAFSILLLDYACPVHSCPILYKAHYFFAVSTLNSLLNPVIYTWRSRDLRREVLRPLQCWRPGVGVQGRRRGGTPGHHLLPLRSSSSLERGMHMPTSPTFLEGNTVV

SMILES: CCNC(=O)CN(CC)CC(=O)c1cc(C)n(Cc2ccccc2)c1C
- EC50 [1]: > 30 µM (not active)

SMILES: Brc1ccc(-c2nnc3sc(CNC4CCCC4)cn23)cc1
- IC50 [2]: > 100 µM (not active)

SMILES: CN(CC(=O)Nc1cccc(F)c1)C(=O)c1cccc(-n2cccc2)c1
- IC50 (Genome polyprotein): > 49.8 µM (not active)
- IC50 [3]: 6.19 µM (active)
- CC50 [4]: > 40 µM (active)

SMILES: Cc1cc(C)n(-c2cc(C(C)(C)C)nc3c(-c4ccc(Cl)cc4)cnn23)n1
- EC50 (Oxytocin receptor): > 29.9 µM (not active)

SMILES: O=C(/C=C/c1ccc(Cl)c([N+](=O)[O-])c1)Nc1ccc(N2CCCC2)cc1
- IC50 (Bcl-2-like protein 1): > 109 µM (not active)
- IC50 [3]: 3.29 µM (active)
- IC50 [5]: > 54 µM (active)
- IC50 [6]: 20.9 µM (not active)

SMILES: O=C(O)CCn1c(SCc2cccc3ccccc23)nc2ccccc21
- IC50 [7]: 36 µM (active)

SMILES: CC1=C(\C=C/C(C)=C/C=C\C(C)=C\C(=O)Nc2ccc(O)cc2)C(C)(C)CCC1
- AC50 (Cytochrome P450 2C19): 31.6 µM (inconclusive)
- AC50 (Cytochrome P450 2C9): 7.94 µM (inconclusive)

SMILES: O=C(Nc1ccccc1)Nc1cc(OCC(F)(F)F)cc(OCC(F)(F)F)c1
- EC50 [8]: 0.719 µM (active)
- EC50 [9]: 4.56 µM (active)
- AC50 (Paired box protein Pax-8): 6.93 µM (active)
- IC50 [10]: > 49.8 µM (not active)
- EC50 [11]: 7.18 µM (active)
- IC50 [12]: 2.35 µM (active)
- EC50 [13]: 6.09 µM (active)
- IC50 [14]: 0.26 µM (active)
- IC50 [15]: 1.68 µM (active)
- AC50 [16]: 6.4 µM (active)
- IC50 [17]: > 25 µM (inactive)
- EC50 [18]: 6.81 µM (active)
- IC50 [19]: 0.0827 µM (active)
- EC50 (Streptococcus): 9.63 µM (active)
- AC50 [20]: 6.97 µM (active)
- IC50 [21]: 1.3 µM (active)
- EC50 [22]: < 6 µM (inconclusive)
- EC50 (Streptokinase A): 18.1 µM (active)
